The record followed here is ChEMBL document CHEMBL4699511, “Cedrol, a Sesquiterpene Alcohol, Enhances the Anticancer Efficacy of Temozolomide in Attenuating Drug Resistance via Regulation of the DNA Damage Response and MGMT Expression” (J Nat Prod, 2020).

The source made the active and inactive calls. No cut-off for these calls is given here.

In series [1] the test system is DBTRG-05MG. Put plainly: Inhibition of JNK phosphorylation at Thr183/Tyr185 residues in human DBTRG-05MG cells at 112.4uM after 48 hrs in presence of TMZ by Western blot analysis (reference value: 1). It is filed as cell-based. On the technique in general: Immunoblotting shows a protein as a band on a membrane.
For series [2], the system named is DBTRG-05MG. Put plainly: Induction of cell cycle arrest in human DBTRG-05MG cells assessed as accumulation at G0/G1 phase at 112.4 uM after 12 hrs in presence of TMZ by propidium iodide staining based flow cytometric analysis (reference value: 47.16 +/- 1.55%). It is filed as functional. On the technique in general: A flow cytometer gives signals particle by particle.

In series [3] the test system is DBTRG-05MG. Put plainly: Synergistic cytotoxicity against human DBTRG-05MG cells assessed as combination index at 89.9 uM after 48 hrs in presence of 412.1 uM TMZ by MTT assay. Type of series: functional. In general terms: Formazan colour is commonly taken as a measure of viable cells.
Series [4] deals with RG2. Briefly: Induction of cell cycle arrest in rat RG2 cells assessed as CyclinD1 expression at 112.4 uM after 48 hrs by Western blot analysis (reference value: 1). It is filed as functional.
Series [5] can be described thus: Effect of MGMT expression in human DBTRG-05MG cells at 112.4 uM after 48 hrs by Western blot analysis (reference value: 1). Type of series: functional.
Series [6] concerns DBTRG-05MG. Put plainly: Induction of DNA damage in human DBTRG-05MG cells assessed as Chk1 phosphorylation at ser345 residues at 112.4 uM after 48 hrs by Western blot analysis (reference value: 1). Type of series: functional.
Series [7] relates to DBTRG-05MG. Put plainly: Induction of cell cycle arrest in human DBTRG-05MG cells assessed as accumulation at G0/G1 phase at 112.4 uM after 6 hrs in presence of TMZ by propidium iodide staining based flow cytometric analysis (reference value: 47.16 +/- 1.55%). It is filed as functional.
Series [8] is described as follows: Synergistic cytotoxicity against rat CTX TNA2 cells assessed as synergistic effect index at 89.9 uM after 48 hrs in presence of 206 uM TMZ by MTT assay. Type of series: cell-based. The settings on record: ctx tna2, 48 h.
Series [9] has as its system RG2. Put plainly: Induction of cell cycle arrest in rat RG2 cells assessed as CyclinD1 expression at 112.4 uM after 48 hrs in presence of TMZ by Western blot analysis (reference value: 1). It is filed as functional.
Series [10] in a line: Effect on AKT expression in rat RG2 cells at 112.4uM after 48 hrs in presence of TMZ by Western blot analysis (reference value: 1). Type of series: functional.
In series [11] the test system is RG2. Put plainly: Induction of apoptosis in rat RG2 cells assessed as cleaved caspace-9 expression at 112.4 uM after 48 hrs by Western blot analysis (reference value: 1). Type of series: functional.
Series [12] has as its system DBTRG-05MG. Briefly: Induction of apoptosis in human DBTRG-05MG cells assessed as increase in DNA fragmentation at 112.4 uM after 48 hrs by TUNEL assay. It is filed as functional, cell-based.
Series [13] concerns RG2. Put plainly: Induction of cell cycle arrest in rat RG2 cells assessed as CyclinA expression at 112.4 uM after 48 hrs by Western blot analysis (reference value: 1). It is filed as functional.
A short description of series [14]: Synergistic cytotoxicity against rat CTX TNA2 cells assessed as combination index at 112.4 uM after 48 hrs in presence of 206 uM TMZ by MTT assay. Type of series: cell-based. The settings on record: ctx tna2, 48 h.
Series [15] concerns DBTRG-05MG. Put plainly: Induction of apoptosis in human DBTRG-05MG cells assessed as Bcl2 expression at 112.4 uM after 48 hrs in presence of TMZ by Western blot analysis (reference value: 1). Type of series: functional.
Series [16] concerns RG2. Put plainly: Induction of apoptosis in rat RG2 cells assessed as increase in apoptotic body formation at 112.4 uM after 48 hrs in presence of TMZ by TUNEL assay. Type of series: functional, cell-based.
The subject of series [17] is DBTRG-05MG. Briefly: Induction of cell cycle arrest in human DBTRG-05MG cells assessed as CyclinD1 expression at 112.4 uM after 48 hrs in presence of TMZ by Western blot analysis (reference value: 1). Type of series: functional.
Series [18] in a line: Synergistic cytotoxicity against rat CTX TNA2 cells assessed as synergistic effect index at 89.9 uM after 48 hrs in presence of 309 uM TMZ by MTT assay. It is filed as cell-based. The settings on record: ctx tna2, 48 h.
Series [19] concerns DBTRG-05MG. Put plainly: Induction of cell cycle arrest in human DBTRG-05MG cells assessed as p21 expression at 112.4 uM after 48 hrs by Western blot analysis (reference value: 1). Type of series: functional.
Series [20] relates to DBTRG-05MG. Briefly: Synergistic cytotoxicity against human DBTRG-05MG cells assessed as synergistic effect index at 89.9 uM after 48 hrs in presence of 206 uM TMZ by MTT assay. Type of series: functional.
The test system of series [21] is DBTRG-05MG. Put plainly: Induction of cell cycle arrest in human DBTRG-05MG cells assessed as accumulation at S phase at 112.4 uM after 24 hrs by propidium iodide staining based flow cytometric analysis (reference value: 22.76 +/- 1.56%). It is filed as functional.
Series [22] relates to DBTRG-05MG. Put plainly: Synergistic cytotoxicity against human DBTRG-05MG cells assessed as combination index at 112.4 uM after 48 hrs in presence of 515.1 uM TMZ by MTT assay. It is filed as functional.
The nature of series [23]: Synergistic cytotoxicity against rat CTX TNA2 cells assessed as synergistic effect index at 112.4 uM after 48 hrs in presence of 206 uM TMZ by MTT assay. Type of series: cell-based. The settings on record: ctx tna2, 48 h.
Series [24] deals with RG2. Put plainly: Induction of cell cycle arrest in rat RG2 cells assessed as accumulation at S phase at 112.4 uM after 6 hrs by propidium iodide staining based flow cytometric analysis (reference value: 20.15 +/- 2.44%). Type of series: functional.
A short description of series [25]: Effect of MDR1 expression in human DBTRG-05MG cells at 112.4 uM after 48 hrs by Western blot analysis. It is filed as functional.
The test system of series [26] is RG2. Put plainly: Inhibition of p38 phosphorylation at Tyr182 residues in rat RG2 cells at 112.4uM after 48 hrs in presence of TMZ by Western blot analysis (reference value: 1). It is filed as cell-based.
The subject of series [27] is RG2. Briefly: Induction of DNA damage in rat RG2 cells assessed as H2A.X phosphorylation at ser139 at 112.4 uM after 48 hrs in presence of TMZ by Western blot analysis (reference value: 1). Type of series: functional.
Series [28] relates to RG2. Put plainly: Synergistic cytotoxicity against rat RG2 cells assessed as combination index at 89.9 uM after 48 hrs in presence of 412.1 uM TMZ by MTT assay. Type of series: functional.
Series [29] concerns RG2. Briefly: Induction of apoptosis in rat RG2 cells assessed as Bcl2 expression at 206 uM after 48 hrs by Western blot analysis (reference value: 1). Type of series: functional.
Series [30] deals with RG2. Briefly: Induction of cell cycle arrest in rat RG2 cells assessed as p21 expression at 206 uM after 48 hrs by Western blot analysis (reference value: 1). Type of series: functional.
Series [31] concerns RG2. Briefly: Induction of DNA damage in rat RG2 cells assessed as ATR phosphorylation at ser428 residues at 206 uM after 48 hrs by Western blot analysis (reference value: 1). Type of series: functional.
For series [32], the system named is RG2. Briefly: Induction of apoptosis in rat RG2 cells assessed as phosphorylated caspace-3 expression at 206 uM after 48 hrs by Western blot analysis (reference value: 1). It is filed as functional.
Series [33] relates to RG2. Briefly: Induction of cell cycle arrest in rat RG2 cells assessed as CyclinD1 expression at 206 uM after 48 hrs by Western blot analysis (reference value: 1). It is filed as functional.
In series [34] the test system is DBTRG-05MG. Briefly: Induction of cell cycle arrest in human DBTRG-05MG cells assessed as accumulation at G2/M phase at 206 uM after 12 hrs by propidium iodide staining based flow cytometric analysis (reference value: 30.08 +/- 0.1%). Type of series: functional.

In the case of `C[C@@H]1CC[C@H]2C(C)(C)[C@H]3C[C@@]12CC[C@@]3(C)O` [CEDROL], the fold change (FC) was found to be 0.8 with DBTRG-05MG [1]; 1.4 in the series with RG2 [4]; 0.8 in series [5]; 0.9 with DBTRG-05MG [6]; 0.8 in the series on RG2 [9]; 0.4 in series [10]. For the same molecule, the “fold change (FC)” value with RG2 [11] turned out to be 1.3; with RG2 [13], 0.4; with DBTRG-05MG [15], 0.9; in the series with DBTRG-05MG [17], 0.4; in the series with DBTRG-05MG [19] it was 1.1; in series [25], 1.2. The fold change (FC) turned out to be 1.8 in the series with RG2 [26] and 1.3 in the series on RG2 [27]. For the same molecule, the Activity with DBTRG-05MG [2] is listed as 49.57%; in the series with DBTRG-05MG [7], 49.17%; with DBTRG-05MG [21], 16.03%; in the series on RG2 [24] it was 17.99%. The CI with DBTRG-05MG [3] was 0.8; in [14], 1.17; with DBTRG-05MG [22] it was 0.7; in the series with RG2 [28], 1.34. The Activity_index in [8] is recorded as 0.39; in series [18] it was 0.49; in the series on DBTRG-05MG [20] it was 0.72; in series [23], 0.4. Besides, the result in the series on DBTRG-05MG [12] and in the series on RG2 [16] was Active.
For the molecule `Cn1nnc2c(C(N)=O)ncn2c1=O` [TEMOZOLOMIDE], the “fold change (FC)” value was determined as 1.3 in the series on RG2 [29]; 2.3 with RG2 [30]; 0.8 in the series on RG2 [31]; 1.1 in the series with RG2 [32]; 1 with RG2 [33]. Besides, in the series with DBTRG-05MG [34], the Activity is 35.43%.
